Assay results as given in PubChem BioAssay AID504726 (Broad Institute, 2011).
Activity calls are given as the source filed them.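 Rule for the calls: active = fitted half-maximal concentration for a cytotoxic signal drop no higher than ten times the top valid dose tested; inconclusive = flat curve between -70 and -30 percent, or an unreliable fit; inactive = flat within 30 percent, signal rise, or potency beyond limit.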

Experiment: HeLa cell cytotoxicity, dose response, cytotoxicity control, 24 h, cherry-picked samples (AID 504726);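 note: 0% = DMSO neutral controls and -100% = mitoxantrone positive controls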
Conditions: HeLa viability, CellTiter-Glo ATP luminescence, 24 h; at 35 µM (top of the series)

Structure (SMILES) | activity change, negative = cytotoxicity
O=C(NCCCN1CCCC1=O)c1ccc2c(c1)ncn2C1CCCCC1 | -5.77% (inactive)
Cc1ccsc1/C=N/NC(=O)Cc1ccc(Cl)cc1 | 1.7% (inactive)
CC(Sc1nc(-c2ccco2)nc2c1c(=O)n(C)c(=O)n2C)C(=O)O (centres undefined) | -11% (inactive)
CC(C)Cn1c(N)c(C(=O)CSc2nnc(-c3ccco3)n2C)c(=O)n(C)c1=O | -1.08% (inactive)
N=C1/C(=C\c2ccc(Br)o2)C(=O)N=C2SC(CC(=O)N3CCOCC3)=NN12 | 1.98% (inactive)
COc1cccc(OCCCn2cc(/C=C3/C(=N)N4C=C(C)SC4=NC3=O)c3ccccc32)c1 | -7.08% (inactive)
O=c1cc2c(=O)oc3cc(O)c(O)oc3c2c(O)c1O | -7.01% (inactive)
Cc1ccc(C(CC(=O)N2CCCCC2)c2ccccc2)c(O)c1C (centres undefined) | -3.99% (inactive)
COC(=O)C1=C(N)OC2=C(C(=O)CCC2)C1c1cccs1 (centres undefined) | -5.56% (inactive)
NC(=O)c1ccc(NC(=O)C2COc3ccccc3O2)cc1 (centres undefined) | -1.55% (inactive)
CCOC(=O)CN1NC2(CCCCCC2)NC1=S | -1.79% (inactive)
CCCCN(C(=O)CSc1nnc(-c2ccc(Cl)cc2)o1)c1c(N)n(CC(C)C)c(=O)[nH]c1=O | 5.27% (inactive)
CN1CCN(C(=S)c2ccc(N(C)C)cc2)CC1 | 6.8% (inactive)
CCOC(=O)N1CCN(C(=S)NC(=O)c2cccc(OC)c2)CC1 | -2.14% (inactive)
CCn1c(SCc2nc3sc(C(=O)O)c(C)c3c(=O)[nH]2)nc2ccccc21 | -9.24% (inactive)
CC(=O)OCCCn1c(C)[n+](C)c2cc(Cl)c(Cl)cc21 | -14.3% (inactive)
Cc1c(C#N)c(=O)c(-[n+]2ccccc2)c([S-])n1-c1ccc(Cl)cc1 | -8.57% (inactive)

Structure (SMILES) | activity change, negative = cytotoxicity
COc1ccccc1N1CCN(S(=O)(=O)c2c(C)[nH]c(C)c2C(=O)N2CCCC2)CC1 | 3.8% (inactive)
O=c1c2cc(O)c(O)cc2oc2cc(O)c(C3OC(CO)C(O)C(O)C3O)c(O)c12 (centres undefined) | 3.92% (inactive)
CCOc1ccccc1N1CCN(C(=O)c2ccc3nc(N)sc3c2)CC1 | -19.1% (inactive)
Cc1ccc2cccc(OCC(=O)NCCC3=CCCCC3)c2n1 | -6.65% (inactive)
COc1ccc(OC)c(NC(=O)c2nnn(Cc3ccc(Br)cc3F)c2N)c1 | -9.89% (inactive)
COc1cc2c(cc1OC)-c1cc3ccc4c(c3c[n+]1CC2)OCO4 | -12.1% (inactive)
O=C(O)c1cccc(NC2=Nc3cccc4cccc2c34)c1 | -4.32% (inactive)
CCCCn1c(=O)[nH]c2nc3cc(N)ccc3nc2c1=O | -9.99% (inactive)
COc1cccc(OC)c1C(=O)Nc1cc(C)on1 | 0.727% (inactive)
Cc1n[nH]c(C)c1N1C(=O)c2cccc3c(N4CCCCCC4)ccc(c23)C1=O | -15.8% (inactive)
COc1ccc(OC2CCN(S(=O)(=O)c3ccc(OC)cc3)CC2)cc1 | -12.1% (inactive)
O=C(COc1cccc(F)c1)Nc1nc(-c2cccnc2)cs1 | -21.4% (inactive)
CC(C)C(=O)N1CCN(c2ccccc2NC(=S)NC(=O)c2ccco2)CC1 | -12.9% (inactive)
O=C(O)C(c1ccccc1)N1C(=O)/C(=C\c2ccc(-c3cccc(Cl)c3)o2)SC1=S (centres undefined) | -2.5% (inactive)
COc1ccc(NC(=O)COC(=O)c2c(-c3ccccc3)noc2C)cc1 | 6.45% (inactive)
CCN(CC)c1ccc2cc(S(=O)(=O)c3ccc(C)cc3)c(=O)oc2c1 | -3.69% (inactive)
C=C(C)C(=O)Nc1cccc(C2=NOC3(C2)C[C@@H](C(N)=O)N(C(=O)C2(C)CC2)C3)c1 (some centres undefined) | 1.25% (inactive)
